Results on 13 molecules are retold here after US20260078119A1, “DEGRADER COMPOUNDS AND USES THEREOF” (Bristol-Myers Squibb Company, priority 2024, published 2026).

One assay deals with T1, FAK (Homo sapiens, UniProt Q05397).
T1 construct: homozygous knock-in of a HiBiT tag (Promega Corporation, Madison, WI) to the C-terminus of the FAK gene in its natural genomic locus; endogenous in cells; host or cells: JHH-4-FAK-HiBiT clone d01 (CRISPR-Cas9 knock-in at the endogenous locus)
Briefly: FAK-HiBiT Degradation Assay. To be noted: for DC50: JHH-4-FAK-HiBiT clone d01 cells, two hours incubation, 10-point dose response, 3-fold dilution starting at 1 μM, Nano-Glo HiBiT luminescence, read-out: FAK HiBiT EC50; for FAK HiBiT Ymin: lower limit of the four parameter fit (value A), Ymax derived using DMSO control, JHH-4-FAK-HiBiT cells, two hours. Format: cell-based. In short, it runs like this:
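Degradation read out by HiBiT lytic luminescence after 2 h compound exposure (top concentration 1 μM, 3-fold, 10 points) in JHH-4 clone d01 bearing endogenous FAK-HiBiT knock-in. Four-parameter logistic fit gave EC50 and Ymin; DMSO wells defined Ymax.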

Another assay deals with CAL-51 cells. Briefly: CAL-51 Cell Proliferation Assay. Format: cell-based. The note with it: for EC50: Homo sapiens, 120 hours incubation, 10-point dose response, 4-fold dilutions starting at 10 μM, Cell-Titer-Glo, read-out: CAL-51 Prolif EC50; for CAL-51 Prolif Ymin: minimal percent of DMSO control observed in the concentrations tested (Ymin-obs), 120 hours. The method in brief: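 EC50 comes from a four-parameter logistic fit of blank-corrected, DMSO-normalised CellTiter-Glo signal after 120 h growth (37 °C, 350 cells/well, RPMI complete medium). Compounds ran as 10-point 4-fold series starting at 10 μM, duplicate, 0.1% DMSO. Ymin-obs records the minimal percent of DMSO control observed.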

A word on the EC50: it is the midpoint of the concentration-response curve.

T1 sequence (Q05397 whole entry): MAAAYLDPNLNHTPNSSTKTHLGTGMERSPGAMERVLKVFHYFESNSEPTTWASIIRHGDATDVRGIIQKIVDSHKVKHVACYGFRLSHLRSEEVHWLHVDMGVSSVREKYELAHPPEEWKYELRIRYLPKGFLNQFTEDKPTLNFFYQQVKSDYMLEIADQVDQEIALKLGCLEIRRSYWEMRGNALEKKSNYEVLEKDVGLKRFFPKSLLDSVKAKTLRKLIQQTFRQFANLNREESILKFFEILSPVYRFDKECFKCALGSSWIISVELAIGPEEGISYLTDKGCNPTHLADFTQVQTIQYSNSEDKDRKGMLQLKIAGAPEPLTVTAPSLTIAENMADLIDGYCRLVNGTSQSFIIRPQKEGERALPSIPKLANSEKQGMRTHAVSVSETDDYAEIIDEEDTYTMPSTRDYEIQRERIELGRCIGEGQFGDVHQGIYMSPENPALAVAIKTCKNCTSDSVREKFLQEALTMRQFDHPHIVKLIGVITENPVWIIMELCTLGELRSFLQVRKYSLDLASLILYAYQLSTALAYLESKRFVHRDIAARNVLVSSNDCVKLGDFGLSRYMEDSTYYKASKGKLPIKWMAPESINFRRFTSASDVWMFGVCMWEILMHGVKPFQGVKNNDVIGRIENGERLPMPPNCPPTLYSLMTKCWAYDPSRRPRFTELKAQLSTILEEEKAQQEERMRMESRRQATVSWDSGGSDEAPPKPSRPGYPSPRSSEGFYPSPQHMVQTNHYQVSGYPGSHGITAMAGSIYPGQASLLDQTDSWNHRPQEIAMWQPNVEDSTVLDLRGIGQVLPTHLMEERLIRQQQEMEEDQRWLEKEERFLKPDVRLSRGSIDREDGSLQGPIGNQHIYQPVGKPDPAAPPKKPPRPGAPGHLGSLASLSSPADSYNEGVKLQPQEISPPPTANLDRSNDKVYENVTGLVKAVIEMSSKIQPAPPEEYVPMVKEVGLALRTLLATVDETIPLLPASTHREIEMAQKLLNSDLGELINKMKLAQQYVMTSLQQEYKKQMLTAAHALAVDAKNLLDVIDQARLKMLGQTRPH

`O=C1CCC(N2Cc3cc(Cn4ncc5c(-c6ncccc6C(F)(F)F)cc(N6CC(F)C6)nc54)ccc3C2=O)C(=O)N1` (stereo not shown) [Example 79, 3-(5-{[6-(3-fluoroazetidin-1-yl)-4-[3-(trifluoromethyl)pyridin-2-yl]-1H-pyrazolo[3,4-b]pyridin-1-yl]methyl}-1-oxo-2,3-dihydro-1H-isoindol-2-yl)piperidine-2,6-dione]: at FAK, the DC50 stood at 8.56 nM and the “FAK HiBiT Ymin” value came out at 10.79. Also, in the assay with CAL-51 cells, the 50% effective concentration (EC50) was 3.22 nM and the “CAL-51 Prolif Ymin” value was found to be 23.53.
In the same order, the values of `Cc1cc(OC(C)C)cnc1-c1cc(N2CC(F)C2)nc2c1cnn2Cc1ccc2c(c1)CN(C1CCC(=O)NC1=O)C2=O` (stereo not shown) [Example 80, 3-(5-{[6-(3-fluoroazetidin-1-yl)-4-[3-methyl-5-(propan-2-yloxy)pyridin-2-yl]-1H-pyrazolo[3,4-b]pyridin-1-yl]methyl}-1-oxo-2,3-dihydro-1H-isoindol-2-yl)piperidine-2,6-dione] are 9.06 nM, 5.83, 1.68 nM and 27.48.
In the same order, the values of `CN(c1cc(-c2ncc(C(F)(F)F)cc2Cl)c2cnn(Cc3ccc4c(c3)CN([C@H]3CCC(=O)NC3=O)C4=O)c2n1)[C@H]1C[C@H](O)C1` [Example 81, (3S)-3-[5-({4-[3-chloro-5-(trifluoromethyl)pyridin-2-yl]-6-{methyl[(1r,3r)-3-hydroxycyclobutyl]amino}-1H-pyrazolo[3,4-b]pyridin-1-yl}methyl)-1-oxo-2,3-dihydro-1H-isoindol-2-yl]piperidine-2,6-dione] are 9.57 nM, 12.82, 6.37 nM and 38.16.
In the same order, the values of `CCOc1cnc(-c2cc(N3CC(F)C3)nc3c2cnn3Cc2ccc3c(c2)CN([C@H]2CCC(=O)NC2=O)C3=O)c(C)c1` [Example 82, (3S)-3-(5-{[4-(5-ethoxy-3-methylpyridin-2-yl)-6-(3-fluoroazetidin-1-yl)-1H-pyrazolo[3,4-b]pyridin-1-yl]methyl}-1-oxo-2,3-dihydro-1H-isoindol-2-yl)piperidine-2,6-dione] are 9.61 nM, 8.29, 4.19 nM and 29.74.
Consider `CN(c1cc(-c2ncc(C(F)(F)F)cc2Cl)c2cnn(Cc3ccc4c(c3)CN([C@H]3CCC(=O)NC3=O)C4=O)c2n1)C1CC(C)(O)C1` (stereo partly drawn) [Example 83, (3S)-3-[5-({4-[3-chloro-5-(trifluoromethyl)pyridin-2-yl]-6-{methyl[(1r,3s)-3-hydroxy-3-methylcyclobutyl]amino}-1H-pyrazolo[3,4-b]pyridin-1-yl}methyl)-1-oxo-2,3-dihydro-1H-isoindol-2-yl]piperidine-2,6-dione], for which, on FAK, the DC50 was found to be 10.2 nM and the “FAK HiBiT Ymin” value is recorded as 10.27. Also, in the assay on CAL-51 cells, the EC50 was 5.41 nM and the “CAL-51 Prolif Ymin” value was found to be 30.14.
In the same order, the values of `Cc1cnc(-c2cc(N3CC(F)C3)nc3c2cnn3Cc2ccc3c(c2)CN(C2CCC(=O)NC2=O)C3=O)c(C)c1` (stereo not shown) [Example 85, 3-(5-{[4-(3,5-dimethylpyridin-2-yl)-6-(3-fluoroazetidin-1-yl)-1H-pyrazolo[3,4-b]pyridin-1-yl]methyl}-1-oxo-2,3-dihydro-1H-isoindol-2-yl)piperidine-2,6-dione] are 11.1 nM, 11.71, 6.82 nM and 35.10.
The like results for `O=C1CCC(N2Cc3cc(Cn4ncc5c(-c6ncccc6Cl)cc(N6CC(F)C6)nc54)ccc3C2=O)C(=O)N1` (stereo not shown) [Example 89, 3-(5-{[4-(3-chloropyridin-2-yl)-6-(3-fluoroazetidin-1-yl)-1H-pyrazolo[3,4-b]pyridin-1-yl]methyl}-1-oxo-2,3-dihydro-1H-isoindol-2-yl)piperidine-2,6-dione] were, in that order, 13.4 nM, 8.18, 6.69 nM and 24.94.
In the same order, the values of `O=C1CCC(N2Cc3cc(Cn4ncc5c(-c6ncc(Cl)cc6F)cc(N6CC(F)C6)nc54)ccc3C2=O)C(=O)N1` (stereo not shown) [Example 90, 3-(5-{[4-(5-chloro-3-fluoropyridin-2-yl)-6-(3-fluoroazetidin-1-yl)-1H-pyrazolo[3,4-b]pyridin-1-yl]methyl}-1-oxo-2,3-dihydro-1H-isoindol-2-yl)piperidine-2,6-dione] are 13.6 nM, 15.97, 10.4 nM and 37.96.
With `Cc1cc(C#N)cnc1-c1cc(N2CC(F)C2)nc2c1cnn2Cc1ccc2c(c1)CN(C1CCC(=O)NC1=O)C2=O` (stereo not shown) [Example 91, 6-(1-{[2-(2,6-dioxopiperidin-3-yl)-1-oxo-2,3-dihydro-1H-isoindol-5-yl]methyl}-6-(3-fluoroazetidin-1-yl)-1H-pyrazolo[3,4-b]pyridin-4-yl)-5-methylpyridine-3-carbonitrile], on FAK, the DC50 was found to be 14.1 nM and the “FAK HiBiT Ymin” value is on record as 8.03. Besides, in the assay with CAL-51 cells, the EC50 was determined as 7.78 nM and the “CAL-51 Prolif Ymin” value was 24.52.
The like results for `O=C1CCC(N2Cc3cc(Cn4ncc5c(-c6ncccc6Br)cc(N6CC(F)C6)nc54)ccc3C2=O)C(=O)N1` (stereo not shown) [Example 93, 3-(5-{[4-(3-bromopyridin-2-yl)-6-(3-fluoroazetidin-1-yl)-1H-pyrazolo[3,4-b]pyridin-1-yl]methyl}-1-oxo-2,3-dihydro-1H-isoindol-2-yl)piperidine-2,6-dione] were, in that order, 15.5 nM, 16.43, 9.36 nM and 36.26.
The like results for `CN(c1cc(-c2ncc(C(F)(F)F)cc2Cl)c2cnn(Cc3ccc4c(c3)CN(C3CCC(=O)NC3=O)C4=O)c2n1)C1CCOCC1` (stereo not shown) [Example 94, 3-[5-({4-[3-chloro-5-(trifluoromethyl)pyridin-2-yl]-6-[methyl(oxan-4-yl)amino]-1H-pyrazolo[3,4-b]pyridin-1-yl}methyl)-1-oxo-2,3-dihydro-1H-isoindol-2-yl]piperidine-2,6-dione] were, in that order, 18.3 nM, 23.92, 5.52 nM and 47.74.
The like results for `O=C1CC[C@H](N2Cc3cc(Cn4ncc5c(-c6ccc(F)cc6F)cc(N6CC[C@H](O)C6)nc54)ccc3C2=O)C(=O)N1` [Example 95, (3S)-3-(5-{[4-(2,4-difluorophenyl)-6-[(3S)-3-hydroxypyrrolidin-1-yl]-1H-pyrazolo[3,4-b]pyridin-1-yl]methyl}-1-oxo-2,3-dihydro-1H-isoindol-2-yl)piperidine-2,6-dione] were, in that order, 19.9 nM, 22.15, 13.5 nM and 46.68.
For the molecule `CCOc1ccc(-c2cc(N3CC[C@](C)(O)C3)nc3c2cnn3Cc2ccc3c(c2)CN(C2CCC(=O)NC2=O)C3=O)c(Cl)c1` (stereo partly drawn) [Example 96, 3-(5-{[4-(2-chloro-4-ethoxyphenyl)-6-[(3S)-3-hydroxy-3-methylpyrrolidin-1-yl]-1H-pyrazolo[3,4-b]pyridin-1-yl]methyl}-1-oxo-2,3-dihydro-1H-isoindol-2-yl)piperidine-2,6-dione], on FAK, the DC50 amounted to 20 nM and the “FAK HiBiT Ymin” value was 17.46. Besides, in the assay on CAL-51 cells, the EC50 was 1.88 nM and the “CAL-51 Prolif Ymin” value was determined as 45.73.
